# Results taken from ChEMBL document CHEMBL1201862, “PubChem BioAssay data set” (2004).
# Values joined by “and” are separate entries in the source; they are usually repeats but may differ in a detail not shown here. Equal entries are not always repeated.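 48-hour exposure; five concentrations; linearly interpolated endpoints. GI50 = concentration required for 50% inhibition of growth.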 Active and inactive are the calls of the source. Rule as the data show it: active = GI50 up to about 1.1 µM and inactive = higher.
# Key:
# Assay in all cases: DTP human tumour cell line panel, 48 h
# SNB-75 = test system: SNB-75
# SF-295 = test system: SF-295
# TK-10 = test system: TK-10
# BT-549 = test system: BT-549
# A498 = test system: A498
# NCI-H23 = test system: NCI-H23
# SK-MEL-5 = test system: SK-MEL-5
# NCI-H460 = test system: NCI-H460
# NCI-H522 = test system: NCI-H522
# DU-145 = test system: DU-145
# SN12C = test system: SN12C
# OVCAR-5 = test system: OVCAR-5
# SK-MEL-2 = test system: SK-MEL-2
# NCI-H226 = test system: NCI-H226
# HT-29 = test system: HT-29
# SK-OV-3 = test system: SK-OV-3
# Malme-3M = test system: Malme-3M
# CCRF-CEM = test system: CCRF-CEM
# HOP-62 = test system: HOP-62
# HL-60 = test system: HL-60
Compound,GI50 (SNB-75),GI50 (SF-295),GI50 (TK-10),GI50 (BT-549),GI50 (A498),GI50 (NCI-H23),GI50 (SK-MEL-5),GI50 (NCI-H460),GI50 (NCI-H522),GI50 (DU-145),GI50 (SN12C),GI50 (OVCAR-5),GI50 (SK-MEL-2),GI50 (NCI-H226),GI50 (HT-29),GI50 (SK-OV-3),GI50 (Malme-3M),GI50 (CCRF-CEM),GI50 (HOP-62),GI50 (HL-60)
O=C1CSC(c2ccc(Cl)cc2)N1c1ccc(-n2c(-c3ccccc3)nc3ccccc3c2=O)cc1 (stereo not given),7.64 µM (inactive),46.1 µM (inactive),> 100 µM (inactive),> 100 µM (inactive),83.4 µM (inactive),> 100 µM (inactive),54.7 µM (inactive),36.5 µM (inactive),25.9 µM (inactive),> 10 µM (inactive),> 100 µM (inactive),> 100 µM (inactive),> 100 µM (inactive),> 100 µM (inactive),84.7 µM (inactive),> 100 µM (inactive),48.9 µM (inactive),45.7 µM (inactive),> 100 µM (inactive),
Cc1ccc(/C=C2/N/C(=N\N=C/C(O)C(O)C(O)CO)NC2=O)cc1 (stereo not given),> 100 µM (inactive),> 100 µM (inactive),> 100 µM (inactive),> 100 µM (inactive),> 100 µM (inactive),> 10 µM (inactive),> 100 µM (inactive),> 100 µM (inactive),71.6 µM (inactive),> 100 µM (inactive),> 100 µM (inactive),> 100 µM (inactive),> 100 µM (inactive),63.5 µM (inactive) and 66.2 µM (inactive),> 100 µM (inactive),> 100 µM (inactive),,,> 100 µM (inactive),56.5 µM (inactive) and 56.4 µM (inactive)
CC[C@@]1(O)C(=O)OCc2c1cc1n(c2=O)Cc2c-1nc1ccccc1c2/C=N\NC(=O)CN,0.133 µM (active),0.143 µM (active),26.1 µM (inactive),0.627 µM (active),0.488 µM (active),0.0676 µM (active),0.252 µM (active),0.042 µM (active),1.02 µM (active),0.0989 µM (active),0.0458 µM (active),3.24 µM (inactive),23.8 µM (inactive),0.188 µM (active),1.68 µM (inactive),,2.76 µM (inactive),< 0.0163 µM (active),0.0533 µM (active),0.145 µM (active)
CN(C)CCCn1c(Cc2ccccc2)nc2cc(C(F)(F)F)ccc21,52.8 µM (inactive),17.1 µM (inactive),28.8 µM (inactive),29.2 µM (inactive),15 µM (inactive),29.5 µM (inactive),17.3 µM (inactive),19.6 µM (inactive),24.4 µM (inactive),67.5 µM (inactive),41.6 µM (inactive),78.7 µM (inactive),17.5 µM (inactive),40.3 µM (inactive),20.7 µM (inactive),23.5 µM (inactive),17.7 µM (inactive),19.4 µM (inactive),26.4 µM (inactive),
COc1cc2c(cc1OC)C1C=NC(C2)c2cc(OC)c(OC)cc21 (stereo not given),> 100 µM (inactive),> 100 µM (inactive),> 100 µM (inactive),81.8 µM (inactive),> 100 µM (inactive),,40.5 µM (inactive),> 100 µM (inactive),46.3 µM (inactive),> 100 µM (inactive),> 100 µM (inactive),> 100 µM (inactive),> 100 µM (inactive),6.97 µM (inactive),> 100 µM (inactive),> 100 µM (inactive),,,> 100 µM (inactive),50.7 µM (inactive)
CCOP(=O)(/C=C/n1ccc(N)nc1=O)OCC,> 100 µM (inactive),> 100 µM (inactive),> 100 µM (inactive),> 100 µM (inactive),> 100 µM (inactive),> 100 µM (inactive),> 100 µM (inactive),> 100 µM (inactive),> 100 µM (inactive),> 100 µM (inactive),> 100 µM (inactive),> 100 µM (inactive),> 100 µM (inactive),97.9 µM (inactive),> 100 µM (inactive),> 100 µM (inactive),,> 100 µM (inactive),> 100 µM (inactive),> 100 µM (inactive)
O=C1CN(C(=O)C2CCCN2C(=O)C2CCCN2)C(=O)CN1 (stereo not given),> 100 µM (inactive),> 100 µM (inactive),> 100 µM (inactive),> 100 µM (inactive),55.2 µM (inactive),> 100 µM (inactive),> 100 µM (inactive),> 100 µM (inactive),> 100 µM (inactive),> 100 µM (inactive),> 100 µM (inactive),> 100 µM (inactive),,> 100 µM (inactive),> 100 µM (inactive),> 100 µM (inactive),> 100 µM (inactive),> 100 µM (inactive),> 100 µM (inactive),> 100 µM (inactive)
Cn1c(=O)c2[nH]c(N/N=C3/SCC(=O)N3Cc3ccccc3)nc2n(C)c1=O,,21.2 µM (inactive),> 100 µM (inactive),> 100 µM (inactive),> 100 µM (inactive),71.9 µM (inactive),34.9 µM (inactive),> 100 µM (inactive),50.8 µM (inactive),65.6 µM (inactive),> 100 µM (inactive),19 µM (inactive),42.8 µM (inactive),> 100 µM (inactive),48.9 µM (inactive),30.2 µM (inactive),52.5 µM (inactive),22.1 µM (inactive),> 100 µM (inactive),69.5 µM (inactive)
Cc1nc2c(Cl)cc(Cl)cc2c2c1CCO2,60.8 µM (inactive),> 100 µM (inactive),> 100 µM (inactive),> 100 µM (inactive),67.1 µM (inactive),> 100 µM (inactive),> 100 µM (inactive),> 100 µM (inactive),> 100 µM (inactive),> 100 µM (inactive),> 100 µM (inactive),> 100 µM (inactive),> 100 µM (inactive),> 100 µM (inactive),> 100 µM (inactive),,> 100 µM (inactive),48.4 µM (inactive),,65.3 µM (inactive)
O=C(c1cc(Cl)ccc1Cl)N1CCN(c2ccc(Cl)c(Cl)c2)CC1,31.1 µM (inactive),45.4 µM (inactive),31.9 µM (inactive),25.2 µM (inactive),11.5 µM (inactive),33.5 µM (inactive),14.6 µM (inactive),17 µM (inactive),20.7 µM (inactive),61.2 µM (inactive),33.3 µM (inactive),16.6 µM (inactive),,13.6 µM (inactive),22.8 µM (inactive),,17.9 µM (inactive),41.6 µM (inactive),67.5 µM (inactive),76.9 µM (inactive)
c1ccc(CSSSCc2ccccc2)cc1 [DIBENZYL TRISULFIDE],7.18 µM (inactive),6.58 µM (inactive),1.62 µM (inactive),3.27 µM (inactive),18.6 µM (inactive),2.4 µM (inactive),1.88 µM (inactive),1.7 µM (inactive),0.363 µM (active),1.12 µM (active),0.912 µM (active),3.62 µM (inactive),1.08 µM (active),,1 µM (active),3.61 µM (inactive),7.36 µM (inactive),0.0269 µM (active),0.964 µM (active),0.378 µM (active)
O=C1C(CO)=C[C@@H](O)[C@H]2O[C@@H]12 [EPOXYDON],37.4 µM (inactive),> 100 µM (inactive),,98.9 µM (inactive),> 100 µM (inactive),65.6 µM (inactive),> 100 µM (inactive),53.1 µM (inactive),> 100 µM (inactive),> 100 µM (inactive),18.4 µM (inactive),> 100 µM (inactive),> 100 µM (inactive),> 100 µM (inactive),> 100 µM (inactive),> 100 µM (inactive),> 100 µM (inactive),30.7 µM (inactive),> 100 µM (inactive),26 µM (inactive)
Cc1nn(-c2ccccn2)c2c1C(SC#N)=C(C=O)CC2,15.3 µM (inactive),30.3 µM (inactive),1.67 µM (inactive),18.5 µM (inactive),2.29 µM (inactive),16.4 µM (inactive),15 µM (inactive),15.9 µM (inactive),19.5 µM (inactive),14.9 µM (inactive),18.5 µM (inactive),4.85 µM (inactive),16.9 µM (inactive),,16.1 µM (inactive),19.3 µM (inactive),18.3 µM (inactive),2.12 µM (inactive),9.38 µM (inactive),3.55 µM (inactive)
CC(=O)OC1[C@@H](OC(C)=O)CN(OCc2ccccc2)C[C@H]1OC(C)=O (stereo not given in full),> 100 µM (inactive),> 100 µM (inactive),> 100 µM (inactive),> 100 µM (inactive),> 100 µM (inactive),> 100 µM (inactive),> 100 µM (inactive),> 100 µM (inactive),> 100 µM (inactive),> 100 µM (inactive),> 100 µM (inactive),> 100 µM (inactive),> 100 µM (inactive),> 100 µM (inactive),> 100 µM (inactive),33 µM (inactive),,> 100 µM (inactive),> 100 µM (inactive),> 100 µM (inactive)
CC(C)OC(=O)NNc1cc(Cl)ccc1Cl,58.3 µM (inactive),62.8 µM (inactive),36.6 µM (inactive),64.3 µM (inactive),24.3 µM (inactive),> 100 µM (inactive),39.4 µM (inactive),80.7 µM (inactive),31.5 µM (inactive),> 100 µM (inactive),> 100 µM (inactive),> 100 µM (inactive),65.8 µM (inactive),,> 100 µM (inactive),> 100 µM (inactive),35.6 µM (inactive),59.7 µM (inactive),> 100 µM (inactive),21.7 µM (inactive)
